In paper PMC11470957, “Principles of paralog-specific targeted protein degradation engaging the C-degron E3 KLHDC2” (Nature Communications, 2024):
Several values for one entry are separate records, joined by “and”; a condition that tells them apart may be missing. Equal entries are not always repeated. Where two headings read alike, the source gives them in different places.

Tests used:
BRD4 = BRD4 (Homo sapiens, UniProt O60885); experiment: Western blot of BRD4 levels after cellular dosing; conditions: for BRD4 (DMSO = 100): Rep1, Rep2
[1] = test system: U2OS KLHDC2 KO/rescue and KO cells (proteome); experiment: TMT-based total proteomics of dosed U2OS cells; conditions: 1 μM, 24 h

## COC(=O)CNC(=O)Cc1csc(-c2ccc3cccc(OCCN4CCN(C(=O)C[C@@H]5N=C(c6ccc(Cl)cc6)c6c(sc(C)c6C)-n6c(C)nnc65)CC4)c3c2)n1 [SJ46420]
BRD4; Fig S6h, U2OS Time course, 5uM, 4hr
  BRD4 level, Western blot quantification (DMSO = 100): 91.1641 and 100.137
BRD4; Fig S6h, U2OS Time course, 5uM, 8hr
  BRD4 level, Western blot quantification (DMSO = 100): 65.7267 and 72.5334
BRD4; Fig S6h, U2OS Time course, 5uM, 24hr
  BRD4 level, Western blot quantification (DMSO = 100): 56.1641 and 64.2352
BRD4; Fig S6d, U2OS KO/rescue Dose Response, 0.156 uM
  BRD4 level, Western blot quantification (DMSO = 100): 81.019 and 75.43
BRD4; Fig S6d, U2OS KO/rescue Dose Response, 0.313 uM
  BRD4 level, Western blot quantification (DMSO = 100): 75.0042 and 85.343
BRD4; Fig S6d, U2OS KO/rescue Dose Response, 0.625 uM
  BRD4 level, Western blot quantification (DMSO = 100): 69.2459 and 75.342
BRD4; Fig S6d, U2OS KO/rescue Dose Response, 1.25 uM
  BRD4 level, Western blot quantification (DMSO = 100): 72.3683 and 63.23
BRD4; Fig S6d, U2OS KO/rescue Dose Response, 2.5 uM
  BRD4 level, Western blot quantification (DMSO = 100): 72.6616 and 79.232
BRD4; Fig S6d, U2OS KO/rescue Dose Response, 5 uM
  BRD4 level, Western blot quantification (DMSO = 100): 65.5064 and 72.323
BRD4; MDA-MB-468, 2.5µM, 24 h, Fig S6b
  BRD4 level relative to DMSO (100%): 90 +/- 6.3%
BRD4; MDA-MB-468, 5µM, 24 h, Fig S6b
  BRD4 level relative to DMSO (100%): 78 +/- 4.3%
BRD4; MDA-MB-468, 10µM, 24 h, Fig S6b
  BRD4 level relative to DMSO (100%): 68 +/- 3.6%
BRD4; PC3, 0.16µM, 24 h, Fig S6e
  BRD4 level relative to DMSO (100%): 78 +/- 4.1%
BRD4; PC3, 0.31µM, 24 h, Fig S6e
  BRD4 level relative to DMSO (100%): 80 +/- 7.3%
BRD4; PC3, 0.63µM, 24 h, Fig S6e
  BRD4 level relative to DMSO (100%): 72 +/- 4.3%
BRD4; PC3, 1.3µM, 24 h, Fig S6e
  BRD4 level relative to DMSO (100%): 67 +/- 6.5%
BRD4; PC3, 2.5µM, 24 h, Fig S6e
  BRD4 level relative to DMSO (100%): 75 +/- 4.7%
BRD4; PC3, 5µM, 24 h, Fig S6e
  BRD4 level relative to DMSO (100%): 68 +/- 4.8%
BRD4; PC3, 10µM, 24 h, Fig S6e
  BRD4 level relative to DMSO (100%): 44 +/- 5.7%
BRD4; PC3 cells, Log SJ46420 1.89279
  BRD4 (DMSO = 100): 90.1763 and 93.433
BRD4; PC3 cells, Log SJ46420 4
  BRD4 (DMSO = 100): 40.11 and 48.232
BRD4; SKBR3, 1µM, 2hr, Fig S6g
  BRD4 level relative to DMSO (100%): 102 +/- 3.1%
BRD4; SKBR3, 1µM, 4hr, Fig S6g
  BRD4 level relative to DMSO (100%): 78 +/- 4.7%
BRD4; SKBR3, 1µM, 8hr, Fig S6g
  BRD4 level relative to DMSO (100%): 75 +/- 4.5%
BRD4; SKBR3, 5µM, 2hr, Fig S6g
  BRD4 level relative to DMSO (100%): 104 +/- 6.7%
BRD4; SKBR3, 5µM, 4hr, Fig S6g
  BRD4 level relative to DMSO (100%): 63 +/- 5.8%
BRD4; SKBR3, 5µM, 4hr, Fig S6j
  BRD4 level relative to DMSO (100%): 78 +/- 8.2%
BRD4; SKBR3, 5µM, 8hr, Fig S6g
  BRD4 level relative to DMSO (100%): 55 +/- 5.1%
BRD4; U2OS DC2KO (KLHDC2 knockout), 5µM, 24 h, Fig 6b
  BRD4 level relative to DMSO (100%): 99 +/- 12%
BRD4; U2OS KO/Rescue cells, Log SJ46420 1.59176
  BRD4 (DMSO = 100): 106.334 and 102.232
BRD4; U2OS KO/Rescue, 0.16µM, 24 h, Fig S6d
  BRD4 level relative to DMSO (100%): 92 +/- 9.3%
BRD4; U2OS KO/Rescue, 0.31µM, 24 h, Fig S6d
  BRD4 level relative to DMSO (100%): 83 +/- 16%
BRD4; U2OS KO/Rescue, 0.63µM, 24 h, Fig S6d
  BRD4 level relative to DMSO (100%): 69 +/- 12%
BRD4; U2OS KO/Rescue, 1µM, 24 h, Fig 6c
  BRD4 level relative to DMSO (100%): 90 +/- 4.1%
BRD4; U2OS KO/Rescue, 1µM, 24 h, Fig 6d
  BRD4 level relative to DMSO (100%): 75 +/- 10%
BRD4; U2OS KO/Rescue, 1.3µM, 24 h, Fig S6d
  BRD4 level relative to DMSO (100%): 46 +/- 15%
BRD4; U2OS KO/Rescue, 2.5µM, 24 h, Fig S6d
  BRD4 level relative to DMSO (100%): 26 +/- 2.1%
BRD4; U2OS KO/Rescue, 5µM, 24 h, Fig S6d
  BRD4 level relative to DMSO (100%): 3.4 +/- 0.69%
BRD4; U2OS KO/Rescue, 24 h dose
  BRD4 Dmax: ~ 100%
BRD4; U2OS KO/Rescue, concentration not printed (line after 5µM), 24 h, Fig S6d
  BRD4 level relative to DMSO (100%): 0.51 +/- 0.21%
BRD4; U2OS, 5µM, 4hr, Fig S6h
  BRD4 level relative to DMSO (100%): 96 +/- 7.2%
BRD4; U2OS, 5µM, 8hr, Fig S6i
  BRD4 level relative to DMSO (100%): 176 +/- 28%
BRD4; U2OS, 5µM, 8hr, Fig S6h
  BRD4 level relative to DMSO (100%): 69 +/- 4.4%
BRD4; U2OS, 5µM, 24 h, Fig 6b
  BRD4 level relative to DMSO (100%): 74 +/- 4.1%
BRD4; U2OS, 5µM, 24hr, Fig S6h
  BRD4 level relative to DMSO (100%): 60 +/- 5.6%
BRD4; U2OS, read-out: BRD4 Dmax, U2OS KO/Rescue, 24 h dose
  Dmax: 99.4%
BRD4; read-out: BRD4 Dmax, PC3, 24 h dose
  Dmax: 59.5%
[1]; KO/rescue U2OS cells
  change of protein levels by TMT proteomics: BRD3 was most substantially downregulated, with lesser reductions in the levels of BRD4 and BRD2
[1]; U2OS KLHDC2 KO cells
  change of protein levels by TMT proteomics: not observed
